For one data set, the system named is Colinus virginianus. The settings on record: oral; for NOEL: short-term.
A further data set relates to Apis mellifera. The settings on record: acute, mortality.
A further data set concerns Tagia sp. The settings on record: chronic/long-term; duration: 8 weeks.
The test system of a further data set is Daphnia magna. Particulars: chronic/long-term; duration: 21 days; reproduction.
The subject of the next data set is Coturnix japonica. Particulars: acute; oral; mortality.

“And” between values parts separate entries of the source, which are not always exact repeats. Equal values may be shown once.

In the data set on Colinus virginianus (acute, diet, mortality), `[Cl-].[Cu+2].[Cu+2].[OH-].[OH-].[OH-]` [Dicopper chloride trihydroxide] registered an LC50 of 333 mg/kg-day. Besides, the LD50 came out at 511 mg/kg with Colinus virginianus (acute, mortality); 44.3 µg/piece in the data set with Apis mellifera (dermal); 12.1 µg/piece in the data set on Apis mellifera (oral, unspecified). Further, the NOEC was less than 15 mg/kg in the data set on Tagia sp. and 0.0076 mg/L with Daphnia magna.

Regarding `O.O.[Cu]` [Copper hydroxide (Cu(OH)2)], the LD50 in the data set on Colinus virginianus (acute, mortality) amounted to 223 mg/kg; in the data set with Coturnix japonica, 556 mg/kg. Moreover, the NOEL was 124 mg/kg-day and 132 mg/kg-day in the data set with Colinus virginianus (diet); 7.05 mg/kg-day in the data set on Anas platyrhynchos (reproductive); 216 mg/kg-day and 191 mg/kg-day in the data set on Anas platyrhynchos (short-term, oral, feed).

For the molecule `[Cu+].[Cu+].[O-2]` [Cuprous oxide], the NOEL with Colinus virginianus (diet) turned out to be 31.9 mg/kg-day. For the same molecule, the LD50 in the data set with Coturnix japonica was found to be 1180 mg/kg.

Values taken from EPA's ToxValDB 9.5 (doi:10.2903/j.efsa.2008.187r).
